Experimental data taken from paper PMC6271228, “Diethyl 2-(Phenylcarbamoyl)phenyl Phosphorothioates: Synthesis, Antimycobacterial Activity and Cholinesterase Inhibition” (Molecules, 2014).
≈ marks a conversion by molar mass, not a printed value. Like-named read-outs stand apart in the source and are kept apart here.

Key:
[1] = target: T1, BChE from equine serum (Equus caballus, UniProt P81908); assay: BChE inhibition, modified Ellman's method; format: biochemical
T1 construct: butyrylcholinesterase from equine serum; from tissue; host or cells: equine serum
T1 sequence (P81908 whole entry): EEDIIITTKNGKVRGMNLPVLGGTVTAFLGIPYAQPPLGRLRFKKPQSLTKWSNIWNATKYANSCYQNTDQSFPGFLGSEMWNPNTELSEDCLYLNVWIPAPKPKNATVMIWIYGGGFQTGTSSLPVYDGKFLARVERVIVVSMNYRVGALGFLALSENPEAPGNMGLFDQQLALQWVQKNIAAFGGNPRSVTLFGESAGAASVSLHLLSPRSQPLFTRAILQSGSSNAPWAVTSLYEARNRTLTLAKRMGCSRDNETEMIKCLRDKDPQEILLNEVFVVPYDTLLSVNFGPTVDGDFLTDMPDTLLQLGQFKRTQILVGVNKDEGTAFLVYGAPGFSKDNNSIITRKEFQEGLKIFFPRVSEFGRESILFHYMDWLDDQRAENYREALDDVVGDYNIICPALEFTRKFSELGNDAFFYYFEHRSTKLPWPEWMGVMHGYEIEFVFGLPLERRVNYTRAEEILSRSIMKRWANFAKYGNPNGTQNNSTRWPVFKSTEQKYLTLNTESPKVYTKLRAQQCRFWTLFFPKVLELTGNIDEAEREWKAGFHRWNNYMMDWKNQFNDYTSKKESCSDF
From the text: (§1) The ability of the tested compounds to inhibit AChE from electric eel (Electrophorus electricus L.) and BChE from equine serum was screened in vitro using modified Ellman’s method for the evaluation of cholinesterase activity. […] […]. These two standards were chosen due to their different structures. […]. The choice of these drugs with different mechanism of action can provide relevant results. All tested compounds expressed a good inhibitory activity with IC50s in low micromolar values.
(§2) The IC50 values were determined using the spectrophotometric Ellman’s method, which is a simple, rapid and direct method to determine the SH and -S-S- group content in proteins. This method is widely used for cholinesterase activity evaluation and screening of the efficiency of cholinesterase inhibitors. Cholinesterase activity is measured indirectly by quantifying the concentration of 5-thio-2-nitrobenzoic acid (TNB) ion formed in the reaction between the thiol reagent 5,5'-dithiobis-2-nitrobenzoic acid (DTNB) and thiocholine, a product of substrate hydrolysis by cholinesterase (i.e., acetylthiocholine, ATCh). All the tested compounds were dissolved in dimethyl sulfoxide (concentration 0.01 M) and then diluted in demineralised water (concentration 0.001 M and 0.0001 M). The Ellman’s method is slightly modified according to Zdrazilova et al.. Acetylcholinesterase was obtained from electric eel (Electrophorus electricus L.) and butyrylcholinesterase from equine serum.

[2] = target: T2, AChE from electric eel (Electrophorus electricus, UniProt O42275); assay: AChE inhibition, modified Ellman's method; format: biochemical, Electrophorus electricus L.
T2 construct: Acetylcholinesterase was obtained from electric eel (Electrophorus electricus L.); from tissue; host or cells: electric eel (Electrophorus electricus L.)
T2 sequence (O42275 24-633): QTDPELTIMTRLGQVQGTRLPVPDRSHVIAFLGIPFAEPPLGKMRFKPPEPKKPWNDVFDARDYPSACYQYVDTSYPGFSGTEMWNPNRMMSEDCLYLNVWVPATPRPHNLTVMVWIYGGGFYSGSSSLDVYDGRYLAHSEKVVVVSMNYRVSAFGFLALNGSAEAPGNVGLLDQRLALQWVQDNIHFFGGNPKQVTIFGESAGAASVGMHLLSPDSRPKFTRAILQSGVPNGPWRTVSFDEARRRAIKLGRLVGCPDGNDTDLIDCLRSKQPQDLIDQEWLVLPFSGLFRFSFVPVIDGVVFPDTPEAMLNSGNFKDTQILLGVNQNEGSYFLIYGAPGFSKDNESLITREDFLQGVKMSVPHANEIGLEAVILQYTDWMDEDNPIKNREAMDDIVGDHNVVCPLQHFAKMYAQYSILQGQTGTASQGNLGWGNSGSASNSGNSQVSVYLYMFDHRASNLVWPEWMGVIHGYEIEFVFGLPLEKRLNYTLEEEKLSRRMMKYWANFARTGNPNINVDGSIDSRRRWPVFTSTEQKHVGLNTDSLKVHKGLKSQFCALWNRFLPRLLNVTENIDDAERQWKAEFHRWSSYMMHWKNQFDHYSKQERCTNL
From the text: as §1, §2

[3] = tested on: Mycobacterium tuberculosis My 331/88 (H37Rv); assay: microbe, parasite or virus in culture; format: cell-based
[4] = tested on: M. avium My 330/88; assay: microbe, parasite or virus in culture; format: cell-based, Mycobacterium avium; conditions: for MIC: Mycobacterium avium, 37 °C
[5] = tested on: M. kansasii My 235/80; assay: microbe, parasite or virus in culture; format: cell-based, Mycobacterium kansasii; conditions: for MIC: Mycobacterium kansasii, 37 °C; for MICs for M. kansasii 235/80: all time points
[6] = tested on: M. kansasii 6509/96 (clinically isolated); assay: microbe, parasite or virus in culture; format: cell-based; conditions: Mycobacterium kansasii, 37 °C
[7] = 336 h, 14 d, 37 °C, read-out: MIC Mtb 331/88 (H37Rv) 14 d
[8] = 504 h, 21 d, 37 °C, read-out: MIC Mtb 331/88 (H37Rv) 21 d
[9] = MY330/88, 336 h, 14 d, read-out: MIC M. avium 330/88 14 d
[10] = MY330/88, 504 h, 21 d, read-out: MIC M. avium 330/88 21 d
[11] = MY235/80, 168 h, 7 d, read-out: MIC M. kansasii 235/80 7 d
[12] = MY235/80, 336 h, 14 d, read-out: MIC M. kansasii 235/80 14 d
[13] = MY235/80, 504 h, 21 d, read-out: MIC M. kansasii 235/80 21 d
[14] = 168 h, 7 d, read-out: MIC M. kansasii 6509/96 7 d
[15] = 336 h, 14 d, read-out: MIC M. kansasii 6509/96 14 d
[16] = 504 h, 21 d, read-out: MIC M. kansasii 6509/96 21 d

SMILES	IC50 [1]	IC50 [2]	MIC [3, 7]	MIC [3, 8]	MIC [4, 9]	MIC [4, 10]	MIC [5, 11]	MIC [5, 12]	MIC [5, 13]	MIC [6, 14]	MIC [6, 15]	MIC [6, 16]	MIC ([3]; read-out: MIC against Mtb)	MIC values against M. avium ([4]; all MIC values (14 and 21 d))	MICs for M. kansasii 235/80 [5]
CCOP(=S)(OCC)Oc1ccc(Br)cc1C(=O)Nc1cccc(Cl)c1 [1a, O-{4-Bromo-2-[(3-chlorophenyl)carbamoyl]phenyl} O,O-diethyl phosphorothioate]	13.9 ± 0.05 µM	12.6 ± 0.05 µM	8 µM (≈ 3.83 µg/mL)	16 µM (≈ 7.66 µg/mL)	500 µM (≈ 239 µg/mL)	> 500 µM	125 µM (≈ 59.8 µg/mL)	500 µM (≈ 239 µg/mL)	500 µM (≈ 239 µg/mL)	125 µM (≈ 59.8 µg/mL)	500 µM (≈ 239 µg/mL)	500 µM (≈ 239 µg/mL)	–	–	–
NNC(=O)c1ccncc1 [INH, isoniazid, reference compound]	–	–	0.5 to 1 µM (≈ 0.0686 to 0.137 µg/mL)	1 µM (≈ 0.137 µg/mL)	> 250 µM	> 250 µM	> 250 µM	> 250 µM	> 250 µM	2 to 4 µM (≈ 0.274 to 0.549 µg/mL)	4 µM (≈ 0.549 µg/mL)	4 to 8 µM (≈ 0.549 to 1.1 µg/mL)	–	–	–
CCOP(=S)(OCC)Oc1cc(Cl)ccc1C(=O)Nc1cccc(F)c1 [1x, O-{5-Chloro-2-[(3-fluorophenyl)carbamoyl]phenyl} O,O-diethyl phosphorothioate]	8.68 ± 0.54 µM	8.04 ± 0.27 µM	16 µM (≈ 6.69 µg/mL)	32 µM (≈ 13.4 µg/mL)	250 µM (≈ 104 µg/mL)	250 µM (≈ 104 µg/mL)	32 µM (≈ 13.4 µg/mL)	125 µM (≈ 52.2 µg/mL)	250 µM (≈ 104 µg/mL)	32 µM (≈ 13.4 µg/mL)	125 µM (≈ 52.2 µg/mL)	250 µM (≈ 104 µg/mL)	–	–	–
Nc1ccc(C(=O)O)c(O)c1 [PAS, para-aminosalicylic acid, reference compound]	–	–	62.5 µM (≈ 9.57 µg/mL)	62.5 µM (≈ 9.57 µg/mL)	32 µM (≈ 4.9 µg/mL)	125 µM (≈ 19.1 µg/mL)	125 µM (≈ 19.1 µg/mL)	1000 µM (≈ 153 µg/mL)	> 1000 µM	32 µM (≈ 4.9 µg/mL)	125 µM (≈ 19.1 µg/mL)	500 µM (≈ 76.6 µg/mL)	–	–	–
CCOP(=S)(OCC)Oc1cc(Cl)ccc1C(=O)Nc1ccc(F)cc1 [1y, O-{5-Chloro-2-[(4-fluorophenyl)carbamoyl]phenyl} O,O-diethyl phosphorothioate]	8.67 ± 0.49 µM	11.6 ± 0.3 µM	32 µM (≈ 13.4 µg/mL)	32 µM (≈ 13.4 µg/mL)	125 µM (≈ 52.2 µg/mL)	250 µM (≈ 104 µg/mL)	62.5 µM (≈ 26.1 µg/mL)	250 µM (≈ 104 µg/mL)	500 µM (≈ 209 µg/mL)	62.5 µM (≈ 26.1 µg/mL)	250 µM (≈ 104 µg/mL)	500 µM (≈ 209 µg/mL)	–	–	–
CCOP(=S)(OCC)Oc1cc(Cl)ccc1C(=O)Nc1ccc(Cl)c(Cl)c1 [1u, O-{5-Chloro-2-[(3,4-dichlorophenyl)carbamoyl]phenyl} O,O-diethyl phosphorothioate]	14.7 ± 0.2 µM	9.56 ± 0.21 µM	16 µM (≈ 7.5 µg/mL)	16 µM (≈ 7.5 µg/mL)	> 500 µM	> 500 µM	32 µM (≈ 15 µg/mL)	32 µM (≈ 15 µg/mL)	32 µM (≈ 15 µg/mL)	32 µM (≈ 15 µg/mL)	62.5 µM (≈ 29.3 µg/mL)	62.5 µM (≈ 29.3 µg/mL)	–	–	–
CCOP(=S)(OCC)Oc1ccc(Br)cc1C(=O)Nc1cccc(C(F)(F)F)c1 [1h, O-(4-Bromo-2-{[3-(trifluoromethyl)phenyl]carbamoyl}phenyl) O,O-diethyl phosphorothioate]	20 ± 0.5 µM	13 ± 0.02 µM	8 µM (≈ 4.1 µg/mL)	8 µM (≈ 4.1 µg/mL)	125 µM (≈ 64 µg/mL)	125 µM (≈ 64 µg/mL)	32 µM (≈ 16.4 µg/mL)	62.5 µM (≈ 32 µg/mL)	125 µM (≈ 64 µg/mL)	32 µM (≈ 16.4 µg/mL)	62.5 µM (≈ 32 µg/mL)	125 µM (≈ 64 µg/mL)	8 µM (≈ 4.1 µg/mL)	≤ 250 µM	≤ 250 µM
CCOP(=S)(OCC)Oc1ccc(Cl)cc1C(=O)Nc1ccc(Cl)cc1 [1k, O-{4-Chloro-2-[(4-chlorophenyl)carbamoyl]phenyl} O,O-diethyl phosphorothioate]	12.7 ± 0.1 µM	9.78 ± 0.11 µM	32 µM (≈ 13.9 µg/mL)	32 µM (≈ 13.9 µg/mL)	500 µM (≈ 217 µg/mL)	500 µM (≈ 217 µg/mL)	32 µM (≈ 13.9 µg/mL)	62.5 µM (≈ 27.1 µg/mL)	62.5 µM (≈ 27.1 µg/mL)	62.5 µM (≈ 27.1 µg/mL)	125 µM (≈ 54.3 µg/mL)	125 µM (≈ 54.3 µg/mL)	–	–	≤ 250 µM
CCOP(=S)(OCC)Oc1ccc(Br)cc1C(=O)Nc1ccc(Cl)c(Cl)c1 [1c, O-{4-Bromo-2-[(3,4-dichlorophenyl)carbamoyl]phenyl} O,O-diethyl phosphorothioate]	18.8 ± 0.7 µM	14 ± 0.1 µM	4 µM (≈ 2.05 µg/mL)	4 µM (≈ 2.05 µg/mL)	500 µM (≈ 257 µg/mL)	500 µM (≈ 257 µg/mL)	62.5 µM (≈ 32.1 µg/mL)	250 µM (≈ 128 µg/mL)	500 µM (≈ 257 µg/mL)	62.5 µM (≈ 32.1 µg/mL)	125 µM (≈ 64.1 µg/mL)	125 µM (≈ 64.1 µg/mL)	4 µM (≈ 2.05 µg/mL)	–	–
CCOP(=S)(OCC)Oc1ccc(Br)cc1C(=O)Nc1cccc(F)c1 [1f, O-{4-Bromo-2-[(3-fluorophenyl)carbamoyl]phenyl} O,O-diethyl phosphorothioate]	12.2 µM	12.7 ± 0.05 µM	8 µM (≈ 3.7 µg/mL)	16 µM (≈ 7.4 µg/mL)	250 µM (≈ 116 µg/mL)	500 µM (≈ 231 µg/mL)	62.5 µM (≈ 28.9 µg/mL)	250 µM (≈ 116 µg/mL)	500 µM (≈ 231 µg/mL)	62.5 µM (≈ 28.9 µg/mL)	250 µM (≈ 116 µg/mL)	250 µM (≈ 116 µg/mL)	–	–	–
CCOP(=S)(OCC)Oc1cc(Cl)ccc1C(=O)Nc1ccc(Br)cc1 [1w, O-{2-[(4-Bromophenyl)carbamoyl]-5-chlorophenyl} O,O-diethyl phosphorothioate]	16.4 ± 0.2 µM	10.12 ± 0.08 µM	32 µM (≈ 15.3 µg/mL)	32 µM (≈ 15.3 µg/mL)	250 µM (≈ 120 µg/mL)	250 µM (≈ 120 µg/mL)	32 µM (≈ 15.3 µg/mL)	32 µM (≈ 15.3 µg/mL)	32 µM (≈ 15.3 µg/mL)	32 µM (≈ 15.3 µg/mL)	62.5 µM (≈ 29.9 µg/mL)	62.5 µM (≈ 29.9 µg/mL)	–	–	–
